The values below come from patent publication US7928140B2, “Benzothiazole PI3 kinase modulators for cancer treatment” (Amgen Inc., priority 2007, dated 2011).

The target of assay [1] is T1, PI3K β (Homo sapiens, UniProt P42338).
T1 construct: Full length p110 subunits of PI3K α, β and δ, N-terminally labeled with polyHis tag; polyHis (N); made in house; host or cells: Sf9 insect cells (baculovirus)
Description: In vitro PI3 kinase enzyme assay (beta), ATP loss, bioluminescence.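 Further: purified p110β/p85 heterodimer with PtdIns(4,5)P2 as acceptor, incubated at room temperature, leftover ATP read by luminescence, inhibition scaled to compound-free wells with and without enzyme.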 In kind it is biochemical. Conditions: read-out: PI3Kβ ATP loss IC50.

Assay [2] concerns the target T2, PI3K α (Homo sapiens, UniProt P42336).
T2 construct: Full length p110 subunits of PI3K α, β and δ, N-terminally labeled with polyHis tag; polyHis (N); made in house; host or cells: Sf9 insect cells (baculovirus)
The experiment in a line: In vitro PI3 kinase enzyme assay (alpha), ATP loss, bioluminescence.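 Further: purified p110α/p85 heterodimer acting on PtdIns(4,5)P2 at room temperature, remaining ATP read by luminescence, inhibition scaled between compound-free wells with and without enzyme.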 In kind it is biochemical. Conditions: read-out: PI3Kα ATP loss IC50.

T2 sequence (P42336 whole entry, species assumed): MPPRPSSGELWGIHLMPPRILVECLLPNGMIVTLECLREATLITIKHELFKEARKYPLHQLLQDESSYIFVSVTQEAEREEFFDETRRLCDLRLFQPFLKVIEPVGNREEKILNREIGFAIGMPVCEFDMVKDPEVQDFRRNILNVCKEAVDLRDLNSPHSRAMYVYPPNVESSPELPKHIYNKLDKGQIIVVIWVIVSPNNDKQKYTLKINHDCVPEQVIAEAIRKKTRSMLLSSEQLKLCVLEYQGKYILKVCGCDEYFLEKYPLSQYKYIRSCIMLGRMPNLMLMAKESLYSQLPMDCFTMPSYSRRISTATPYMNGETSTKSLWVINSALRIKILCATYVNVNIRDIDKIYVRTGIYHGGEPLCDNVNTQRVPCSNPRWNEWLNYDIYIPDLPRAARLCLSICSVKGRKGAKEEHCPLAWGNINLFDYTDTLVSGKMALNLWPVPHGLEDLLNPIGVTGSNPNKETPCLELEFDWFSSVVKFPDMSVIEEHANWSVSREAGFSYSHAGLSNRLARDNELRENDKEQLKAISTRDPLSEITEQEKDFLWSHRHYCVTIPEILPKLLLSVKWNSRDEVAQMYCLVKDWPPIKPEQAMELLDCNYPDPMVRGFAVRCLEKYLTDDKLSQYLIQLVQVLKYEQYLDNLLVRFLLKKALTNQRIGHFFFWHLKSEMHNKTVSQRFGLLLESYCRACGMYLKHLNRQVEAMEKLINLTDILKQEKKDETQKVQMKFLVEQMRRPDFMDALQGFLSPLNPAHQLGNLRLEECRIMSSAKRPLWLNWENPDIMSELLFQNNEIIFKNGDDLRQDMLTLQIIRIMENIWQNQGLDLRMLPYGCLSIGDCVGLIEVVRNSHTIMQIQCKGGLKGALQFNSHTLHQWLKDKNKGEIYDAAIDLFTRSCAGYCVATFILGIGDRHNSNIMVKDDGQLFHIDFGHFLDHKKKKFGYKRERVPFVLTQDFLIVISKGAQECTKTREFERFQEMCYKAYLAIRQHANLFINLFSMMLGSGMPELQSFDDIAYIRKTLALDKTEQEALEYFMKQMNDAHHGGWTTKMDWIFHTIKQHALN
T2 sequence (P27986 whole entry partner, species assumed): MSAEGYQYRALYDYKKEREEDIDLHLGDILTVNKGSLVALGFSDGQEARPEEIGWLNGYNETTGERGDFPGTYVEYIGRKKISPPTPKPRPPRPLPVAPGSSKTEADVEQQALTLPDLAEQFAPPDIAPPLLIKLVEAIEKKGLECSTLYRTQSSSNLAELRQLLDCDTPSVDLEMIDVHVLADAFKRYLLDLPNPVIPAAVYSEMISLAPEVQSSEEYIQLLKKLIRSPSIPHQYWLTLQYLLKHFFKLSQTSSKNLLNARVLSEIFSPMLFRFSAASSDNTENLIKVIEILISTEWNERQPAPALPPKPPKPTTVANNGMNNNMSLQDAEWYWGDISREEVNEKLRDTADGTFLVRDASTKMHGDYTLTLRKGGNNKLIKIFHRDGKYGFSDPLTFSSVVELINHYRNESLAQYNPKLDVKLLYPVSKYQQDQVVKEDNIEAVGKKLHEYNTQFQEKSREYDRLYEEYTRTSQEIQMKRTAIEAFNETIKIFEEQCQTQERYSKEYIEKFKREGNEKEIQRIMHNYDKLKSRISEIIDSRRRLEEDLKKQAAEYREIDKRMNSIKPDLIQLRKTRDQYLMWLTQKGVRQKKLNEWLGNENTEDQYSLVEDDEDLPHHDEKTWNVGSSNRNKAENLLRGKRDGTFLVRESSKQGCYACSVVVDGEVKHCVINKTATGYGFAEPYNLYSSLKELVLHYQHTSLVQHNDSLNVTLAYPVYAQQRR
T1 sequence (P42338 whole entry): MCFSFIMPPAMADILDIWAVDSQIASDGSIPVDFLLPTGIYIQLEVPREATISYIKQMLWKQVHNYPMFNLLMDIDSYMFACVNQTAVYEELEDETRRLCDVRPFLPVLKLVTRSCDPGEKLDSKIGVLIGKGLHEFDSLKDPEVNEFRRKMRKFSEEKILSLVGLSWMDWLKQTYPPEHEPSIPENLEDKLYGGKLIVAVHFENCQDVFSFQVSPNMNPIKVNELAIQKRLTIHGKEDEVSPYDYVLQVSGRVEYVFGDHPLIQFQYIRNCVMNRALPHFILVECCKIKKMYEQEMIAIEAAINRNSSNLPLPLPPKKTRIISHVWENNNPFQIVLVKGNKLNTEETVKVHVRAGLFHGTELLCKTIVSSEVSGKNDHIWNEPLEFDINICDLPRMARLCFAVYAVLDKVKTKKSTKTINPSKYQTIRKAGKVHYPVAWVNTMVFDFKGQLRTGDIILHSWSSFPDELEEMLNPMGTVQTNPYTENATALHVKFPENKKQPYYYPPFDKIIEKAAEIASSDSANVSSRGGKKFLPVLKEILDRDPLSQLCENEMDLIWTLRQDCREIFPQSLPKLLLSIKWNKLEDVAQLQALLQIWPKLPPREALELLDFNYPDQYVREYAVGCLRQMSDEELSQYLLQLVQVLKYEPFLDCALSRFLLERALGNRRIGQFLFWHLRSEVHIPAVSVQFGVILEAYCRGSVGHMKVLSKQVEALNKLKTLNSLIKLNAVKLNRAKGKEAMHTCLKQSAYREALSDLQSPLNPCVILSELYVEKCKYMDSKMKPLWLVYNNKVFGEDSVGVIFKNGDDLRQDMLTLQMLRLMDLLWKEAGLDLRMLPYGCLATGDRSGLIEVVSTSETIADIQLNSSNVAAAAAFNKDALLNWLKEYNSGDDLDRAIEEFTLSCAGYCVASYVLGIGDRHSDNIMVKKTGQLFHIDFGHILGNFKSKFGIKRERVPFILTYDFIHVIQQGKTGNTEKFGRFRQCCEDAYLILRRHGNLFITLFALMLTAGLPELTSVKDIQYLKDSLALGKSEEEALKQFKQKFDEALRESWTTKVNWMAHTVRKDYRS
T1 sequence (P27986 whole entry partner): as the sequence (P27986 whole entry partner, species assumed) above

As to `CC(=O)Nc1nc2ccc(-c3cnc(OCCN(C)C)c(NC(C)C)c3)cc2s1` [Example 159, N-(6-(6-(2-(dimethylamino)ethoxy)-5-(isopropylamino)pyridin-3-yl)benzo[d]thiazol-2-yl)acetamide], the IC50 (as a rule, the midpoint of a concentration-inhibition curve) in assay [1] was determined as 3740 nM; in assay [2], 914 nM.
The corresponding values for `CC(=O)Nc1nc2ccc(-c3csc(S(=O)(=O)c4ccc(F)cc4)n3)cc2s1` [Example 97, N-(6-(2-(4-Fluorophenylsulfonyl)thiazol-4-yl)benzo[d]thiazol-2-yl)acetamide] are 28000 nM and 17300 nM.
For the molecule `CC(=O)Nc1nc2ccc(-c3cncc(OCCN4CCC(C)(C)C4=O)c3)cc2s1` [Example 252], the IC50 was 45000 nM in assay [1] and 2920 nM in assay [2].
The corresponding values for `CC(=O)Nc1nc2ccc(-c3ccnc(N(C)S(=O)(=O)c4ccc(F)cc4)n3)cc2s1` [Example 203, N-(6-(2-(4-fluoro-N-methylphenylsulfonamido)pyrimidin-4-yl)benzo[d]thiazol-2-yl)acetamide] are 930 nM and 324 nM.
The corresponding values for `COc1ccc(S(=O)(=O)Nc2cc(-c3ccc4nc(NC(=O)C5CCCCC5)sc4c3)cnc2Cl)cc1` [Example 304, N-(6-(6-chloro-5-(((4-methoxyphenyl)sulfonyl)amino)-3-pyridinyl)-1,3-benzothiazol-2-yl)cyclohexanecarboxamide] are 29.2 nM and 16.3 nM.
Take `CC(C)(C)Nc1cc(-c2ccc3nc(N)sc3c2)cnc1Cl` [Example 315, 6-(5-(tert-butylamino)-6-chloro-3-pyridinyl)-1,3-benzothiazol-2-amine]: the IC50 in assay [1] came to 2940 nM; in assay [2], 965 nM.
For the molecule `CC(=O)Nc1nc2ccc(-c3cnc(Cl)c(N(C(=O)OC(C)(C)C)C(=O)OC(C)(C)C)c3)cc2s1` [Example 277, Bis(tert-butyl) 5-(2-acetamidobenzo[d]thiazol-6-yl)-2-chloropyridin-3-ylcarbamate], the IC50 was determined as 4800 nM in assay [1] and 2190 nM in assay [2].
`CN(C)c1cc(-c2ccc3nc(NS(C)(=O)=O)sc3c2)cnc1Cl` [Example 276, N-(6-(6-chloro-5-(dimethylamino)pyridin-3-yl)benzo[d]thiazol-2-yl)methanesulfonamide]: the IC50 in assay [1] amounted to 29900 nM; in assay [2] it was 1720 nM.
`CC(=O)c1cncc(-c2ccc3ncsc3c2)c1` [Example 336, 1-(5-(1,3-benzothiazol-6-yl)-3-pyridinyl)ethanone]: the IC50 in assay [1] turned out to be 13300 nM; in assay [2], 2550 nM.
The corresponding values for `CC(=O)Nc1nc2ccc(-c3ccnc(SCc4ccccc4C)n3)cc2s1` [Example 37, N-(6-(2-((2-methylbenzyl)sulfanyl)-4-pyrimidinyl)-1,3-benzothiazol-2-yl)acetamide] are 4120 nM and 119 nM.
With `CCOc1ccc(-c2ccc3nc(NC(C)=O)sc3c2)cn1` [Example 243, N-(6-(6-ethoxypyridin-3-yl)benzo[d]thiazol-2-yl)acetamide], the IC50 in assay [1] is over 40000 nM; in assay [2], 156 nM.
On to `CC(=O)Nc1nc2ccc(-c3cncc(N(C)S(=O)(=O)c4ccc(Cl)cc4)c3)cc2s1` [Example 220, N-(6-(5-(4-chloro-N-methylphenylsulfonamido)pyridin-3-yl)benzo[d]thiazol-2-yl)acetamide], for which the IC50 is 3330 nM in assay [1] and 539 nM in assay [2].
With `CC(C)(C)OC(=O)Nc1nc2ccc(-c3nnc(NS(=O)(=O)c4ccc(F)cc4)o3)cc2s1` [Example 167, tert-Butyl 6-(5-(4-fluorophenylsulfonamido)-1,3,4-oxadiazol-2-yl)benzo[d]thiazol-2-ylcarbamate], the half-inhibitory concentration (IC50) was 5800 nM in assay [1] and 663 nM in assay [2].
The corresponding values for `CC(=O)Nc1nc2ccc(-c3ccnc(Sc4cc(C)ccc4C)n3)cc2s1` [Example 123, N-(6-(2-((2,5-dimethylphenyl)sulfanyl)-4-pyrimidinyl)-1,3-benzothiazol-2-yl)acetamide] are 537 nM and 23.5 nM.
The corresponding values for `CC(=O)Nc1nc2ccc(-c3ccnc(N(C)C)n3)cc2s1` [Example 52, N-(6-(2-(dimethylamino)-4-pyrimidinyl)-1,3-benzothiazol-2-yl)acetamide] are over 40000 nM and 2580 nM.
The corresponding values for `CC(=O)Nc1nc2ccc(-c3ccnc(N4CCCCC4)n3)cc2s1` [Example 263, N-(6-(2-(piperidin-1-yl)pyrimidin-4-yl)benzo[d]thiazol-2-yl)acetamide] are over 40000 nM and 1940 nM.
Regarding `CC(=O)Nc1nc2ccc(-c3cc(OC(C)C#N)cnc3Cl)cc2s1` (stereo not shown) [Example 291, N-(6-(2-chloro-5-(1-cyanoethoxy)pyridin-3-yl)benzo[d]thiazol-2-yl)acetamide], the IC50 in assay [1] was 3790 nM; in assay [2], 983 nM.
For `CC(=O)Nc1nc2ccc(-c3ccnc(Cc4ccccc4)n3)cc2s1` [Example 13, N-(6-(2-Benzylpyrimidin-4-yl)benzo[d]thiazol-2-yl)acetamide], the results for the concentration for half-maximal inhibition (IC50) in assay [1] and in assay [2] were over 40000 nM and 4480 nM, respectively.
The corresponding values for `COc1ccc(S(=O)(=O)c2ncc(-c3ccc4nc(NC(C)=O)sc4c3)s2)cc1` [Example 61, N-(6-(2-(4-methoxyphenylsulfonyl)thiazol-5-yl)benzo[d]thiazol-2-yl)acetamide] are 31000 nM and 38800 nM.
`COc1ccc(S(=O)(=O)Nc2cc(-c3ccc4nc(NCC5CCCCC5)sc4c3)cnc2Cl)cc1` [Example 306, N-(2-chloro-5-(2-((cyclohexylmethyl)amino)-1,3-benzothiazol-6-yl)-3-pyridinyl)-4-methoxybenzenesulfonamide]: the half-maximal inhibitory concentration (IC50) in assay [1] was 411 nM; in assay [2], 104 nM.
The corresponding values for `COc1ccc(-c2cccc3nc(NC(C)=O)sc23)cc1F` [Example 94] are 24800 nM and 998 nM.
For `COc1ccc(S(=O)(=O)Nc2nccc(-c3ccc4nc(NC(C)=O)sc4c3)n2)cc1OC` [Example 87, N-(6-(2-(((3,4-dimethoxyphenyl)sulfonyl)amino)-4-pyrimidinyl)-1,3-benzothiazol-2-yl)acetamide], the IC50 in assay [1] came out at 7190 nM; in assay [2], 153 nM.
`CC(=O)Nc1nc2ccc(-c3cncc(OCCN4CCC(F)(F)C4=O)c3)cc2s1` [Example 254]: the half-maximal inhibitory concentration (IC50) is 24100 nM in assay [1] and 1180 nM in assay [2].
Turning to `CC(=O)Nc1nc2ccc(-c3cnc(OCCCN(C)C)c(NC(C)C)c3)cc2s1` [Example 153, N-(6-(6-(3-(dimethylamino)propoxy)-5-((1-methylethyl)amino)-3-pyridinyl)-1,3-benzothiazol-2-yl)acetamide], the 50% inhibitory concentration (IC50) turned out to be 1840 nM in assay [1] and 284 nM in assay [2].
With `CC(=O)Nc1nc2ccc(-c3cncc(N(C)S(=O)(=O)c4ccc(C(F)(F)F)cc4)c3)cc2s1` [Example 218, N-(6-(5-(N-methyl-4-(trifluoromethyl)phenylsulfonamido)pyridin-3-yl)benzo[d]thiazol-2-yl)acetamide], the IC50 in assay [1] is 8270 nM; in assay [2] it was 1050 nM.
The corresponding values for `CC(=O)Nc1nc2ccc(-c3cccc4[nH]ncc34)cc2s1` [Example 99, N-(6-(1H-Indazol-4-yl)benzo[d]thiazol-2-yl)acetamide] are over 40000 nM and 288 nM.
The corresponding values for `COc1ccc(S(=O)(=O)Nc2cc(-c3ccc4nc(SC)sc4c3)cnc2Cl)cc1` [Example 327, N-(2-chloro-5-(2-(methylsulfanyl)-1,3-benzothiazol-6-yl)-3-pyridinyl)-4-methoxybenzenesulfonamide] are 384 nM and 222 nM.
The corresponding values for `O=C(CN1CCOCC1)Nc1nc2ccc(-c3ccnc(OCc4ccccc4)n3)cc2s1` [Example 54, N-(6-(2-(benzyloxy)-4-pyrimidinyl)-1,3-benzothiazol-2-yl)-2-(4-morpholinyl)acetamide] are over 40000 nM and 7330 nM.
`CC(=O)Nc1nc2ccc(-c3ccnc(NS(=O)(=O)c4cccnc4)n3)cc2s1` [Example 79, N-(6-(2-(pyridine-5-sulfonamido)pyrimidin-4-yl)benzo[d]thiazol-2-yl)acetamide]: the IC50 amounted to 849 nM in assay [1] and 60.6 nM in assay [2].
The corresponding values for `CC(=O)Nc1nc2ccc(-c3cccc(S(=O)(=O)c4cccc(F)c4)n3)cc2s1` [Example 67, N-(6-(6-((3-fluorophenyl)sulfonyl)-2-pyridinyl)-1,3-benzothiazol-2-yl)acetamide] are 3350 nM and 300 nM.
Take `CC(=O)Nc1nc2ccc(-c3cccc4sc(=O)[nH]c34)cc2s1` [Example 98, N-(6-(2-oxo-2,3-Dihydrobenzo[d]thiazol-4-yl)benzo[d]thiazol-2-yl)acetamide]: the half-inhibitory concentration (IC50) in assay [1] came out at 10000 nM; in assay [2], 3140 nM.
The corresponding values for `CC(=O)Nc1nc2ccc(-c3cncc(OCCN4CCOCC4)c3)cc2s1` [Example 230, N-(6-(5-(2-morpholinoethoxy)pyridin-3-yl)benzo[d]thiazol-2-yl)acetamide] are 19300 nM and 2790 nM.
Turning to `COCCOCOc1cc(-c2ccc3nc(NC(C)=O)sc3c2)cnc1Cl` [Example 292, N-(6-(6-chloro-5-((2-methoxyethoxy)methoxy)pyridin-3-yl)benzo[d]thiazol-2-yl)acetamide], the figures for the IC50 in assay [1] and in assay [2] were 2080 nM and 164 nM, respectively.
As to `CC(=O)Nc1nc2ccc(-c3nnc(NS(=O)(=O)c4ccc(F)cc4)o3)cc2s1` [Example 164, N-(6-(5-(4-Fluorophenylsulfonamido)-1,3,4-oxadiazol-2-yl)benzo[d]thiazol-2-yl)acetamide], the IC50 in assay [1] was 322 nM; in assay [2], 17.8 nM.
As for `CC(=O)Nc1nc2ccc(-c3ccnc(OCC4CCN(C)CC4)n3)cc2s1` [Example 25, N-(6-(2-((1-methyl-4-piperidinyl)methoxy)-4-pyrimidinyl)-1,3-benzothiazol-2-yl)acetamide], the results for the half-maximal inhibitory concentration (IC50) in assay [1] and in assay [2] were 26700 nM and 10700 nM, respectively.
